Data reported in patent US5641774A, “Compounds useful as antiproliferative agents and garft inhibitors” (Agouron Pharmaceuticals, Inc., priority 1995, dated 1997).

Columns and labels:
GARFT = conditions: Muggia, New Drugs, Concepts and Results in Cancer Chemotherapy, 1992; cited from earlier work
CCRF-CEM = assay: In vitro growth inhibition of CCRF-CEM cells, Example 2 (MTT); type: cell-based; conditions: Homo sapiens, continuous exposure (title: 72-hour; method: 5 days), mean IC50, read-out: IC50 Cell Culture CCRF-CEM
Description: All cultures were maintained at 37° C. 5% air-CO2 in a humidified incubator.
Stock solutions of the inhibitors were prepared in 10 mM sodium bicarbonate in water and stored in i ml aliquots at -20° C. for cell culture experiments. Cell growth inhibition was measured by a modification of the method of Mosmann, J. Immunol. Methods 65 (1983), 55-63.
Mid-log phase cells of each cell line were diluted to 18,500 cells/ml in fresh RPMI growth medium (Mediatech, Washington, D.C.) supplemented with dialyzed fetal calf serum (Hyclone Laboratories Inc., Logan, Utah) and then aliquotted into columns 2 through 12 of 96-well microtiter plates. Column 1 was filled with the same volume ([…]) of fresh medium, without cells, for use as a blank. The plates were then placed in a 37° C., 5% air-CO2 incubator. After 1 to 4 hours, plates were removed from the incubator followed by addition of Compound (21) at 10× final concentration, […] in binary dilutions, to columns 12 to 4. […] The extent of metabolized MTT was measured spectrophotometrically at 540 nm on a Molecular Devices Vmax™ kinetic microplate reader. The concentration of drug required to reduce cell growth by 50% as measured by MTT metabolism was determined by interpolation between the O.D. (minus blank) immediately above and below 50% of control O.D. (minus blank). […]

[1] = tested on: C3H/BA mammary adenocarcinoma; assay: In vivo antitumor activity, C3H/BA mammary adenocarcinoma implanted subcutaneously in C3H/He female mice; conditions: day 14
Description: (§1) On day zero, 2 mm^2 trocar fragments of C3H/BA mammary adenocarcinoma were implanted subcutaneously in the axillary region into groups of six C3H/He female mice. Starting on day 1, the test compound was administered intraperitoneally in 40% Encapsin given once daily for nine days. Control animals received identical treatment without test compound. The percentage of inhibition was calculated by comparing the mass of the control tumors (receiving diluent only) on day 14 to those of animals receiving test compound.

6C3HED lymphosarcoma = assay: In vivo antitumor activity, 6C3HED lymphosarcoma implanted subcutaneously in C3H/He female mice
Description: as §1, with “6C3HED lymphosarcoma” for “C3H/BA mammary adenocarcinoma”, “percentage” for “percentage of”, “inhibition given in Table 5 below” for “inhibition”, “11” for “14”

Structure (SMILES)	GARFT inhibition and antitumor activity (literature) (GARFT)	IC50 (CCRF-CEM)	% Inhibition (tumor mass) ([1]; 5 mg/kg i.p. once daily for nine days)	% Inhibition (tumor mass) ([1]; 10 mg/kg i.p. once daily for nine days)	% Inhibition (tumor mass) ([1]; 20 mg/kg i.p. once daily for nine days)	% Inhibition (tumor mass) (6C3HED lymphosarcoma; 12.5 mg/kg i.p. once daily for nine days, day 11)	% Inhibition (tumor mass) (6C3HED lymphosarcoma; 25 mg/kg i.p. once daily for nine days, day 11)	% Inhibition (tumor mass) (6C3HED lymphosarcoma; 50 mg/kg i.p. once daily for nine days, printed as a word in the % Inhibition column)
Nc1nc2c(c(=O)[nH]1)CC(CCc1ccc(C(=O)N[C@@H](CCC(=O)O)C(=O)O)cc1)CN2 (some centres unmarked) [5,10-dideazatetrahydrofolic acid]	specific tight binding inhibitor of GARFT, 5,10-dideazatetrahydrofolic acid, has been reported to show antitumor activity							
Nc1nc2c(c(=O)[nH]1)SC(CCc1ccc(C(=O)N[C@@H](CCC(=O)O)C(=O)O)s1)CN2 (stereo partly drawn) [Compound 21, 4-[2-(2-Amino-4-oxo-4,6,7,8-tetrahydro-3H-pyrimido[5,4-6][1,4]thiazin-6-yl)-ethyl]-2,5-thienoylamino-L-glutamic acid]		4.3 nM	16%	84%	100%	100%	100%	toxic
